From BigSolDB 2.1

O=C(O)COc1ccc(Cl)cc1Cl
solubility (mole fraction)
Conditions | 278.15 K | 283.15 K | 288.15 K | 293.15 K | 298.15 K | 303.15 K | 308.15 K | 313.15 K | 318.15 K | 323.15 K
in 2-butanone | 0.0937 | 0.103 | 0.112 | 0.123 | 0.134 | 0.144 | 0.156 | 0.169 | 0.184 | 0.201
in MTBE | 0.087 | 0.0961 | 0.106 | 0.116 | 0.126 | 0.137 | 0.148 | 0.161 | 0.175 | 0.19
in acetone | 0.107 | 0.116 | 0.127 | 0.137 | 0.15 | 0.163 | 0.176 | 0.191 | 0.205 | 0.222
in acetonitrile | 0.0178 | 0.0246 | 0.0306 | 0.0401 | 0.0499 | 0.0572 | 0.0672 | 0.078 | 0.0888 | 0.103
in ethanol | 0.0654 | 0.0797 | 0.0975 | 0.117 | 0.141 | 0.167 | 0.192 | 0.223 | 0.255 | 0.292
in ethyl acetate | 0.0548 | 0.0622 | 0.0703 | 0.0798 | 0.0894 | 0.101 | 0.113 | 0.126 | 0.14 | 0.155
in isobutanol | 0.0317 | 0.0402 | 0.0508 | 0.0627 | 0.0778 | 0.0933 | 0.112 | 0.135 | 0.161 | 0.19
in isobutyl acetate | 0.0365 | 0.0427 | 0.0494 | 0.0574 | 0.0657 | 0.0747 | 0.0846 | 0.0958 | 0.11 | 0.128
in isopropanol | 0.0424 | 0.0525 | 0.0646 | 0.0783 | 0.0942 | 0.113 | 0.132 | 0.153 | 0.176 | 0.201
in methyl acetate | 0.0602 | 0.0685 | 0.0761 | 0.0846 | 0.0976 | 0.106 | 0.119 | 0.131 | 0.144 | 0.16
in n-butanol | 0.0521 | 0.0644 | 0.079 | 0.0986 | 0.127 | 0.146 | 0.17 | 0.198 | 0.231 | 0.27
in n-butyl acetate | 0.0486 | 0.0535 | 0.0604 | 0.0678 | 0.0749 | 0.0832 | 0.0931 | 0.106 | 0.12 | 0.136
in n-pentanol | 0.0537 | 0.0701 | 0.0866 | 0.107 | 0.131 | 0.155 | 0.182 | 0.211 | 0.243 | 0.281
in n-propanol | 0.0486 | 0.0602 | 0.0731 | 0.0911 | 0.11 | 0.131 | 0.152 | 0.179 | 0.207 | 0.236
in sec-butanol | 0.043 | 0.0535 | 0.0665 | 0.0809 | 0.098 | 0.117 | 0.139 | 0.162 | 0.186 | 0.213
